Active and inactive are the calls of the source. How the calls were made is not given here.
Test system: CCRIS mutagenicity, Ames/micronucleus/aberration tests
Experiment: CCRIS mutagenicity studies
[1] = Test System: AMES SALMONELLA TYPHIMURIUM, Strain/Indicator: TA98, Metabolic Activation: NONE, Method: PREINCUBATION
[2] = Test System: AMES SALMONELLA TYPHIMURIUM, Strain/Indicator: TA100, Metabolic Activation: NONE, Method: PREINCUBATION
[3] = Test System: AMES SALMONELLA TYPHIMURIUM, Strain/Indicator: TA1535, Metabolic Activation: NONE, Method: PREINCUBATION

Measured: mutagenic call

CC(C)(C)c1ccc(C(=O)O)cc1
inactive: Test System: Ames Salmonella typhimurium, Strain/Indicator: TA98, Metabolic Activation: None, Method: Preincubation inactive; negative | Test System: Ames Salmonella typhimurium, Strain/Indicator: TA98, Metabolic Activation: Rat, Liver, S9, Sodium phenobarbital and 5,6-benzoflavone (10%), Method: Preincubation inactive; negative | Test System: Ames Salmonella typhimurium, Strain/Indicator: TA100, Metabolic Activation: None, Method: Preincubation inactive; negative | Test System: Ames Salmonella typhimurium, Strain/Indicator: TA100, Metabolic Activation: Rat, Liver, S9, Sodium phenobarbital and 5,6-benzoflavone (10%), Method: Preincubation inactive; negative | Test System: Ames Salmonella typhimurium, Strain/Indicator: TA1535, Metabolic Activation: None, Method: Preincubation inactive; negative | Test System: Ames Salmonella typhimurium, Strain/Indicator: TA1535, Metabolic Activation: Rat, Liver, S9, Sodium phenobarbital and 5,6-benzoflavone (10%), Method: Preincubation inactive; negative | Test System: Ames Salmonella typhimurium, Strain/Indicator: TA1537, Metabolic Activation: None, Method: Preincubation inactive; negative | Test System: Ames Salmonella typhimurium, Strain/Indicator: TA1537, Metabolic Activation: Rat, Liver, S9, Sodium phenobarbital and 5,6-benzoflavone (10%), Method: Preincubation inactive; negative | Test System: E. coli, Strain/Indicator: WP2uvrA/pKM101, Metabolic Activation: None, Method: Preincubation inactive; negative | Test System: E. coli, Strain/Indicator: WP2uvrA/pKM101, Metabolic Activation: Rat, Liver, S9, Sodium phenobarbital and 5,6-benzoflavone (10%), Method: Preincubation inactive; negative

NCCCCCCCCCCCC(=O)O
inactive: [1] inactive; negative | Test System: AMES SALMONELLA TYPHIMURIUM, Strain/Indicator: TA98, Metabolic Activation: RAT LIVER S-9, PHENOBARBITAL AND BETA-NAPHTHOFLAVONE, Method: PREINCUBATION inactive; negative | [2] inactive; negative | Test System: AMES SALMONELLA TYPHIMURIUM, Strain/Indicator: TA100, Metabolic Activation: RAT LIVER S-9, PHENOBARBITAL AND BETA-NAPHTHOFLAVONE, Method: PREINCUBATION inactive; negative | [3] inactive; negative | Test System: AMES SALMONELLA TYPHIMURIUM, Strain/Indicator: TA1535, Metabolic Activation: RAT LIVER S-9, PHENOBARBITAL AND BETA-NAPHTHOFLAVONE, Method: PREINCUBATION inactive; negative | Test System: AMES SALMONELLA TYPHIMURIUM, Strain/Indicator: TA1537, Metabolic Activation: NONE, Method: PREINCUBATION inactive; negative | Test System: AMES SALMONELLA TYPHIMURIUM, Strain/Indicator: TA1537, Metabolic Activation: RAT LIVER S-9, PHENOBARBITAL AND BETA-NAPHTHOFLAVONE, Method: PREINCUBATION inactive; negative | Test System: E.COLI, Strain/Indicator: WP2UVRA/PKM101, Metabolic Activation: NONE, Method: PREINCUBATION inactive; negative | Test System: E.COLI, Strain/Indicator: WP2UVRA/PKM101, Metabolic Activation: RAT LIVER S-9, PHENOBARBITAL AND BETA-NAPHTHOFLAVONE, Method: PREINCUBATION inactive; negative

COc1ccc2c3c1O[C@H]1[C@@H](O)C=C[C@H]4[C@@H](C2)N(C)CC[C@@]341
inactive: Test System: AMES SALMONELLA TYPHIMURIUM, Strain/Indicator: TA97, Metabolic Activation: HAMSTER, LIVER, S-9, AROCLOR 1254 (10 OR 30%), Method: PREINCUBATION inactive; negative | Test System: AMES SALMONELLA TYPHIMURIUM, Strain/Indicator: TA97, Metabolic Activation: NONE, Method: PREINCUBATION inactive; negative | Test System: AMES SALMONELLA TYPHIMURIUM, Strain/Indicator: TA97, Metabolic Activation: RAT, LIVER, S-9, AROCLOR 1254 (10 OR 30%), Method: PREINCUBATION inactive; negative | Test System: AMES SALMONELLA TYPHIMURIUM, Strain/Indicator: TA98, Metabolic Activation: HAMSTER, LIVER, S-9, AROCLOR 1254 (10 OR 30%), Method: PREINCUBATION inactive; negative | [1] inactive; negative | Test System: AMES SALMONELLA TYPHIMURIUM, Strain/Indicator: TA98, Metabolic Activation: RAT, LIVER, S-9, AROCLOR 1254 (10 OR 30%), Method: PREINCUBATION inactive; negative | Test System: AMES SALMONELLA TYPHIMURIUM, Strain/Indicator: TA100, Metabolic Activation: HAMSTER, LIVER, S-9, AROCLOR 1254 (10 OR 30%), Method: PREINCUBATION inactive; negative | [2] inactive; negative | Test System: AMES SALMONELLA TYPHIMURIUM, Strain/Indicator: TA100, Metabolic Activation: RAT, LIVER, S-9, AROCLOR 1254 (10 OR 30%), Method: PREINCUBATION inactive; negative | Test System: AMES SALMONELLA TYPHIMURIUM, Strain/Indicator: TA1535, Metabolic Activation: HAMSTER, LIVER, S-9, AROCLOR 1254 (10 OR 30%), Method: PREINCUBATION inactive; negative | [3] inactive; negative | Test System: AMES SALMONELLA TYPHIMURIUM, Strain/Indicator: TA1535, Metabolic Activation: RAT, LIVER, S-9, AROCLOR 1254 (10 OR 30%), Method: PREINCUBATION inactive; negative

Source: PubChem BioAssay AID1259407 (Chemical Carcinogenesis Research Information System (CCRIS), 2018)
